In US20250361277A1, “PROTEASE-RESPONSIVE SURFACE-POTENTIAL-TUNABLE PEPTIDE CONSTRUCTS FOR SELECTIVE IMAGING AND ACCURATE INHIBITOR SCREENING” (The Regents of the University of California, priority 2024, published 2025):
Counter-ions that a name gives are not always drawn. Like-named read-outs stand apart in the source and are kept apart here. No end group written: not given here.

Legend:
[1] = test system: SARS-CoV-2 infected TMPRSS2-Vero cells; experiment: SARS-CoV-2 infected TMPRSS2-Vero cells with PSGMR and Mpro inhibitor GC376 (CLSM); format: cell-based, SARS-CoV-2 (USA-WA1/2020)
TMPRSS2 [2] = target: T1, TMPRSS2 (Homo sapiens, UniProt O15393); experiment: TMPRSS2 inhibitor screening with EGTP in TMPRSS2-Vero cells (CLSM); design: effect of inhibitor on yellow fluorescence of EGTP: dose or concentration left out as unconfirmed; conditions: for effect of inhibitor on fluorescence intensity of EGTP: 100 nM inhibitor 1 h, 10 μM EGTP 1 h
T1 sequence (O15393 whole entry): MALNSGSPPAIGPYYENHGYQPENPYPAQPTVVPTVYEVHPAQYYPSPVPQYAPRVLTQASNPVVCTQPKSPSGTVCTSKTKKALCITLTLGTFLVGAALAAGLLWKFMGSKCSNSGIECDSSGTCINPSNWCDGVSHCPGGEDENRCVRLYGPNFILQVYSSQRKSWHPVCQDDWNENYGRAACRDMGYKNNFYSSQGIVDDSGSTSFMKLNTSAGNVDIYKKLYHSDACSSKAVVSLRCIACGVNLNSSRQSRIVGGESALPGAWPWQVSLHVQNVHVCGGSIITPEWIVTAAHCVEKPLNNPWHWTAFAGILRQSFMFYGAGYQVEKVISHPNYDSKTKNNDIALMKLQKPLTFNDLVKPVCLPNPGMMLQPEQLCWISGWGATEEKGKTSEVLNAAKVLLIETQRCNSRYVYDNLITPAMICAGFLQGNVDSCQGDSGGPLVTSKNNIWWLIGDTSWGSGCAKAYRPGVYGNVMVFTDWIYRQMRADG
Method: (§5) To further screen TMPRSS2 inhibitors with EGTP, Vero cells and TMPRSS2-Vero cells as robust cell models were chosen for cell imaging (FIG. 4a). Vero cells and TMPRSS2-Vero cells were incubated with different concentrations (1 mM, 5 mM, 10 mM, and 20 mM) of PyTPE and EGTP (Figures S23, S24, S25, and S26).
(§6) Incubation living cells with probes. For confocal laser scanning microscopy imaging, A549 cells, HeLa cells, MCF-7-GFP cells, Vero cells, and TMPRSS2-Vero cells were seeded into cell culture dishes at a density of 2.0×10^5 in growth medium (DMEM supplemented with 10% FBS, 200 mL). After overnight incubation, the cells were washed with phosphate-buffered saline (PBS, pH 7.4) three times. A solution of the indicated probe in PBS was then added, and the cells were incubated in a 5% CO2 atmosphere at 37° C. for further use. […] The supernatant was then discarded, and the cells were washed gently twice with PBS and fixed with 2% paraformaldehyde (PFA) at room temperature for 20 min prior to optical imaging.
(§7) Confocal laser scanning microscopy. […] A 405 nm laser was chosen for the excitation of AIEgens and the emission was collected at 550-620 nm. A 488 nm laser was chosen for the excitation of GFP (or MTG), the emission was collected at 500-530 nm. […] All fluorescence images were analyzed with an IMAGE™ software (Zeiss).

[3] = test system: SARS-CoV-2 infected TMPRSS2-Vero cells; format: cell-based, SARS-CoV-2 (USA-WA1/2020); conditions: for yellow and red fluorescence of infected cells: 10 μM probe; for red and yellow fluorescence and cell morphology of infected cells: PSGMR versus PMR
[4] = test system: Mpro plasmid-transfected HEK 293T cells
[5] = test system: noninfected TMPRSS2-Vero cells
Recombinant Mpro = Recombinant Mpro (Severe acute respiratory syndrome coronavirus 2, UniProt P0DTD1)
[6] = DLS hydrodynamic size and zeta potential of PSGMR without and with Mpro; format: physicochemical
Method: To validate the enzyme digestion efficiency, PSGMR was incubated with different concentrations of Mpro. […] No increase in fluorescence was detected in the presence of the GC376, thus showing that the fluorescence increase was due to Mpro-mediated peptide cleavage. […] PSGMR was also treated under identical conditions with several commercial proteins to investigate probe specificity: papain-like protease, thrombin, bovine serum albumin, and hemoglobin. […] Dynamic light scattering (DLS) tests and transmission electron microscopy (TEM) of PSGMR were performed to de-termine the change of particle size and surface potential distribution after incubation with Mpro. The average hydro-dynamic size of PSGMR increased from 142 nm to 396 nm (FIG. 1h), and the mean zeta potential value decreased from 23.97 mV to 12.46 mV (FIG. 1i). […] This aggregation was confirmed by TEM (FIG. 1j). The 20 mM Tri-HCl buffer can lead to a uniform nanoparticle (˜78 nm) (Figure S18), and β-sheet structure of PSGMR was observed after incubation with Mpro or at high concentrations (Figures S19-S22).
The 1H and 13C NMR spectra were measured on a BRUKER ARX 300™ NMR spectrometer using chloroform-d (CDCl3-d) or dimethyl sulfoxide-d6 (DMSO-d6) as solvent and tetramethylsilane (TMS) as internal reference. Splitting patterns are reported as s (single), d (doublet), t (triplet), and m (multiplet). Peptides were synthesized using an AAPPTec ECLIPSE™ system through standard solid phase Fmoc syntheses on rink-amide resin. Electrospray ionization mass spectrometry (ESI-MS) data was acquired by using a MICROMASS QUATTRO ULTIMA™ mass spectrometer. High resolution mass spectra (HRMS) were recorded on a BRUKER MICROTOF II™ mass spectrometer system. High performance liquid chromatography (HPLC) was performed by using a SHIMADZU™ LC-40 HPLC system under the wavelength of 195 nm, 254 nm, and 405 nm. The sample was dissolved in water or acetonitrile, applied on a ZORBAX 300 BS™ C18 column (5 um, 9.4×250 mm) from Agilent, and eluted at 1.5 mL/min with a 40 min gradient from 10% to 95% solvent B where solvent A is water (0.05% TFA solution) and solvent B is acetonitrile (0.05% TFA solution). All products were purified by HPLC to reach a purity of 90%. UV-Vis absorption and fluorescence spectra were performed on a SYNERGY H1™ microplate reader (BioTek). Confocal laser scanning microscopy images were obtained on a Zeiss LSM880 confocal laser scanning microscope (Zeiss). Dynamic light scattering (DLS) measurements were performed on a NANO-ZS90 ZETASIZER™ (Malvern) to determine hydrodynamic sizes and zeta potential values of the nanosystems studied. Transmission electron microscopy (TEM) images were acquired using an FEI TECNAI F20™ instrument at an operation voltage of 200 kV.

[7] = test system: plasmid transfected HEK 293T cells; format: cell-based
[8] = target: Recombinant SARS-CoV-2 Mpro (Severe acute respiratory syndrome coronavirus 2, UniProt P0DTD1)
[9] = test system: A549 cells, HeLa cells, and MCF-7-GFP cells
Method: (§1) The TMPRSS2 selective imaging capability of EGTP was tested via the three different cell lines.
Cytotoxicity assay. […] The fluorescence of Resazurin solution at 690 nm using an excitation wavelength of 560 nm was recorded by a SYNERGY H1™ microplate reader (BioTek) with standard operation procedures.

TMPRSS2 [10] = target: T1, TMPRSS2; experiment: Impact of protease inhibitors on EGTP fluorescence with TMPRSS2 in buffer; format: biochemical; design: expressed in transfected cells; host or cells: TMPRSS2-Vero cells
HeLa cells = format: cell-based
Method: as §1

A549 cells = experiment: CLSM imaging of A549 cells (TMPRSS2 low expression); format: cell-based; conditions: 10 μM probe, 1 h
Method: (§2) TMPRSS2 selective imaging in cancer cells with EGTP.
(§3) Incubation living cells with probes.
(§4) Confocal laser scanning microscopy.

TMPRSS2 [11] = target: T1, TMPRSS2; experiment: Cleavage of probes by recombinant TMPRSS2 (HPLC and ESI-MS); format: biochemical; conditions: incubation for 1 h at 37° C. in 20 mM Tris-HCl buffer (pH 8.0)
TMPRSS2 [12] = target: T1, TMPRSS2; experiment: Enzymatic fluorescence assay of probes with TMPRSS2; format: biochemical; design: expressed in transfected cells; host or cells: TMPRSS2-Vero cells; conditions: Tris-HCl buffer with 1% DMSO, excitation 405 nm
Method: Recombinant TMPRSS2 was added into the working solution and then diluted to a total of 100 μl with the same Tris-HCl buffer. The reaction mixture was incubated at 37° C. for 1 h for UV-Vis absorption and fluorescence measurement. The solution was excited at 405 nm, and the emission was collected from 430 nm to 800 nm.

MCF-7-GFP cells = experiment: CLSM imaging of MCF-7-GFP cells (TMPRSS2 high expression); format: cell-based; conditions: 10 μM probe, 1 h
Method: as §2, §3, §4

TMPRSS2-Vero cells = format: cell-based
Method: as §5, §6, §7

Vero cells = experiment: CLSM imaging of Vero cells; conditions: 1, 5, 10, 20 mM as printed, 1 h
[13] = 10 μM PSGMR, increasing GC376 (2-12 μM)

CC(C)C[C@H](NC(=O)OCc1ccccc1)C(=O)N[C@@H](C[C@@H]1CCNC1=O)C(O)S(=O)(=O)[O-].[Na+] (stereo partly drawn) [GC376]
red and yellow fluorescence with inhibitor ([1]; 10 μM PSGMR and 2 μM, 6 μM, and 12 μM GC376): markedly decreased
average red fluorescence intensity, decrease [1, 13]: 32.6 to 11.6 times
average yellow fluorescence intensity, decrease [1, 13]: 5.8 to 3.6 times
effect of inhibitor on fluorescence intensity of EGTP (TMPRSS2 [2]): no significant effect on the fluorescence intensity of EGTP

(Pra)KLVFFGGGSAVLQ/SGFRKMAGGGRRRRRR [PSGMR]
high concentration that caused significant cytotoxicity (HEK 293T cells; HEK 293T cells, 48 h): 40 µM
killing / inhibition of infected cells [3]: can selectively kill SARS-CoV-2-infected cells
yellow (probe) and red (PI) fluorescence in infected cells [3]: strong yellow and red fluorescence
yellow and red fluorescence of infected cells [3]: significantly enhanced
average red fluorescence intensity of infected cells, higher than with PMR ([3]; PI channel): 600%
red and yellow fluorescence and cell morphology of infected cells [3]: bright red and yellow fluorescence with obvious cell mor-phologic dilatation
average yellow fluorescence intensity of infected cells, higher than with PMR ([3]; probe channel): 569%
cell viability after incubation with probe ([4]; Mpro plasmid-transfected cells): decreased
cytotoxicity (metabolic activity) ([4]; Mpro plasmid, higher concentration of 10 μM, 48 h): obviously cytotoxic
red and yellow fluorescence and cell morphology of noninfected cells [5]: weak red and yellow fluorescence with normal cell morphology
aggregation and fluorescence on incubation with Mpro (time-dependent spectra) (Recombinant Mpro): can aggregate easily with strong fluorescence
fluorescence intensity with different concentrations of Mpro (Recombinant Mpro): gradually enhanced with in-creasing Mpro concentration
probe specificity: fluorescence intensity with different proteins (Recombinant Mpro): clearly enhanced selectively with Mpro
time to fluorescence plateau at 590 nm (Recombinant Mpro): ≤ 20 min
average hydrodynamic size ([6]; after incubation with Mpro): 396 nm
mean zeta potential value ([6]; after incubation with Mpro): 12.46 mV
average hydrodynamic size ([6]; before incubation with Mpro): 142 nm
mean zeta potential value ([6]; before incubation with Mpro): 23.97 mV
fluorescence of FLIPGFP, PSGMR [7]: weak green and yellow fluo-rescence
fluorescence of FLIPGFP, PSGMR and PI [7]: Strong green, yellow and red fluorescence
green, red and yellow fluorescence intensities with incubation time [7]: markedly enhanced with the longer incubation time
cleavage by Mpro ([8]; pH 8): can be cleaved by Mpro between Q and S

C#CC[C@H](NC(=O)CNC(=O)CNC(=O)[C@H](CCCNC(=N)N)NC(=O)[C@H](C)NC(=O)[C@H](CCC(N)=O)NC(=O)CNC(=O)CNC(=O)CNC(=O)[C@H](CCC(=O)O)NC(=O)[C@H](CCC(=O)O)NC(=O)[C@H](CCC(=O)O)NC(=O)[C@H](CCC(=O)O)NC(=O)[C@H](CCC(=O)O)NC(=O)[C@H](CCC(=O)O)NC(=O)[C@H](CCC(=O)O)NC(=O)[C@H](CCC(=O)O)NC(=O)[C@@H](N)CCC(=O)O)C(N)=O [EGT, EEEEEEEEEGGGQAR (SEQ ID NO:4)]
toxicity to cells ([9]; 1 μM to 20 μM, 48 h): negligible toxicity

(Pra)KLVFFGSAVLQ/SGFRKMARRRRRR [PSMR]
aggregation and fluorescence on incubation with Mpro (time-dependent spectra) (Recombinant Mpro): cannot aggregate with weak fluorescence
fluorescence intensity after incubation with Mpro (Recombinant Mpro): decreased upon incubation with Mpro
cleavage by Mpro ([8]; pH 8): not

CGAVLQDDD [CGAVLQDDD (SEQ ID NO: 11)]
cleavage by Mpro [8]: not cleaved by Mpro

CN(C)C(=O)COC(=O)Cc1ccc(OC(=O)c2ccc(NC(=N)N)cc2)cc1 [Camostat, camostat mesylate]
effect of inhibitor on yellow fluorescence of EGTP (TMPRSS2 [2]; Camostat before adding EGTP): gradually decreased
effect of inhibitor on fluorescence of EGTP with TMPRSS2 incubation (TMPRSS2 [10]): significantly reduced fluorescence of EGTP

AVLQFFVLKC [AVLQFFVLKC (SEQ ID NO:12)]
cleavage by Mpro [8]: not cleaved by Mpro

Cc1ccc(N)cc1C(=O)N[C@H](C)c1cccc2ccccc12 [GRL0617]
effect of inhibitor on fluorescence intensity of EGTP (TMPRSS2 [2]): no significant effect on the fluorescence intensity of EGTP

TGP: control probe without polyglutamic acid: peptide QARGG (SEQ ID NO:2) linked by Propargylglycine (Pra) to the dye PyTPE (also: linked by Pra to dye PyTPE, end not given here)
yellow fluorescence in HeLa cells (HeLa cells; 10 μM probe, 1 h): strong yellow fluorescence
yellow fluorescence in A549 cells (A549 cells): strong yellow fluorescence
cleavage by TMPRSS2 (TMPRSS2 [11]): can be cleaved by TMPRSS2
fluorescence intensity after incubation with TMPRSS2 (comparison of probes) (TMPRSS2 [12]): stronger than that of EGTP and EGEP
yellow fluorescence in MCF-7-GFP cells (MCF-7-GFP cells): strong yellow fluorescence

TetraPhenylEthene Pyridinium [PyTPE]
overlap of yellow fluorescence with Mito tracker green (MTG) (HeLa cells): overlapped well with the green fluorescence of MTG
cytotoxicity (metabolic activity) (HEK 293T cells): obviously cytotoxic
high concentration that caused significant cytotoxicity (HEK 293T cells): 20 µM
concentration that can cause significant cytotoxicity [9]: > 5 µM
cytotoxicity (metabolic activity) [9]: obviously cytotoxic
yellow fluorescence in TMPRSS2-Vero cells (TMPRSS2-Vero cells): enhanced with increasing concentrations
yellow fluorescence in Vero cells (Vero cells): enhanced with increasing concentrations

(Pra)GSAVLQ/SGFRKMAGRRRRRR [PMR]
killing / inhibition of infected cells [3]: can also inhibit infected cells
yellow and red fluorescence of infected cells [3]: weaker than that of PSGMR
red and yellow fluorescence and cell morphology of infected cells [3]: less than the infected cells with PSGMR
aggregation and fluorescence on incubation with Mpro (time-dependent spectra) (Recombinant Mpro): can easily aggregate with strong fluorescence
fluorescence intensity after incubation with Mpro (Recombinant Mpro): weaker than that of PSGMR
cleavage by Mpro [8]: can be cleaved by M^pro
cleavage by Mpro ([8]; pH 8): can be cleaved by Mpro between Q and S
